According to patent US20190187148A1, “BIOMOLECULAR INTERACTION DETECTION DEVICES AND METHODS” (The Regents of the University of California, priority 2013, published 2019):
Where two headings read alike, the source gives them in different places.

System: streptavidin
Description: The fluid channel was at first flown with Tris buffer from syringe A into the device 400 received at the corresponding inlet 411.
The acquired signals were measured from the drain current of the exemplary FET 432. […] This was similarly repeated with 1 mM streptavidin protein in the Tris buffer from syringe B. For example, 20 mM Tris buffer (pH=7.4) was prefilled in the channel and then 1 mM avidin was flowed in the 20 mM Tris buffer in the channel.

O=C(O)CCCC[C@@H]1SC[C@@H]2NC(=O)N[C@@H]21 [biotin]
binding indicated by FET signal waveform (pre-mixed 0.2 mM streptavidin with 4 mM biotin (1:20) in Tris buffer): some biotin molecules have bonded with streptavidin
binding indicated by FET signal waveform (pre-mixed 1 mM streptavidin with 4 mM biotin in Tris buffer): streptavidin and biotin bind together
